{"source": "patent US11427869B2", "about": "“T cell balance gene expression, compositions of matters and methods of use thereof” (THE BROAD INSTITUTE, INC., priority 2015, dated 2022)", "target": "T1, Rorγt (Mus musculus, UniProt P51450)", "T1 construct": "expressed in transfected cells; host or cells: EL4 cells stably transfected with Rorγt vector", "T1 sequence (P51450 1-495 isoform P51450-2)": "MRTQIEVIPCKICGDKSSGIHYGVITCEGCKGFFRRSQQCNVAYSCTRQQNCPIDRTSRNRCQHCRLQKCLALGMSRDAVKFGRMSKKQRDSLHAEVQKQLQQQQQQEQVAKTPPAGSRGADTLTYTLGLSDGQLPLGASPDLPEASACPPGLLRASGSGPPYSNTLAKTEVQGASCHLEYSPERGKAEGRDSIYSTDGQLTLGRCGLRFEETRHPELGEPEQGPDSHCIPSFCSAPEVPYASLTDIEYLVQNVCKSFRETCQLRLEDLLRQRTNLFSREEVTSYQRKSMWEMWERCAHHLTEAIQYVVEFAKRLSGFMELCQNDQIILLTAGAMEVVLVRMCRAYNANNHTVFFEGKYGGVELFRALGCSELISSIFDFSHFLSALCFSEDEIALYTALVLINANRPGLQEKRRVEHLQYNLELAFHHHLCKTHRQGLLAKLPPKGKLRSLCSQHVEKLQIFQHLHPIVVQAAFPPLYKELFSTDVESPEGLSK", "experiment": "Dual luciferase reporter assay of Rorγt transcriptional activity in EL4 cells", "assay_type": "cell-based", "settings": "EL4 cells, CD5L-RV 100 ng; ligand 5, 0.5 or 0.05 uM", "procedure": "Cells and supernatant were harvested at 96 hours and subjected to MS/LC. Three independent mouse experiments were performed. […] All ChIP and luciferase assay are representative of at least 3 independent experiments.\nThree independent experiments were performed.", "data": [{"molecule": "CC(CO)CCC[C@@H](C)[C@H]1CC[C@H]2[C@@H]3[C@@H](O)C=C4C[C@@H](O)CC[C@]4(C)[C@H]3CC[C@]12C", "note": "(stereo partly drawn) [7β, 27-dihydroxycholesterol]", "values": [{"measurement": "Il17 reporter transcription (luciferase)", "value": "rescued the CD5L-driven suppression of Il17 reporter transcription"}]}]}
